In patent US7767238B2, “Beverage composition and method of preventing degradation of vitamins in beverages” (PepsiCo, Inc., priority 2005, dated 2010):

Key:
[1] = Vitamin A Palmitate remaining in clear lemon-lime CSD with Vitamin C and EDTA, clear glass, store fluorescent light (Example 1); assay type: physicochemical; settings: start 2500 IU, one week fluorescent light, Light control 576, Dark control 2300
Method: (§1) A clear lemon-lime (L/L) carbonated soft drink (CSD) with Vitamin C and ethylene-diaminetetraacetic acid (EDTA) was prepared. Seven samples of the carbonated soft drink were prepared each containing 2500 IU of Vitamin A Palmitate which can be obtained from Roche and the amount of rutin, SanMelin or blueberry leaves extract indicated in Table 8. All samples were packaged in clear glass containers. The Dark and Light samples were each free of rutin, SanMelin or blueberry leaves extract. The Dark sample was shielded from light. All the other samples, including the Light sample were exposed to typical store fluorescent light. The values in the table were all measured at one week.

[2] = Vitamin A Palmitate remaining in clear lemon-lime CSD with Vitamin C and EDTA, clear glass, store fluorescent light (Example 2); assay type: physicochemical; settings: 100 ppm stabilizer, start 2000 IU, one week fluorescent light, Light control 548, Dark control 1870
Method: as §1
Example 2 differed from Example 1 in that the starting amount of Vitamin A Palmitate was 2000 IU.

[3] = Vitamin A Palmitate remaining in non-carbonated pink lemonade 5% juice, PET bottle, store fluorescent light (Example 3); assay type: physicochemical; settings: 66 ppm stabilizer, start 3500 IU, one week fluorescent light, Light control 737, Dark control 3215
Method: as §1
A non-carbonated pink lemonade beverage composed of 5% juice was prepared. Seven samples like the ones in Examples 1 and 2 were prepared except that the starting amount of Vitamin A Palmitate was 3500 IU and the samples were packaged in PET containers.

[4] = Vitamin stabilization ability, observed rank order; settings: more hydroxyl groups on the aryl rings enhance vitamin stabilization
[5] = Vitamin A remaining in fruit juice in 20 oz. PET bottle under store fluorescent light; assay type: physicochemical; settings: freshly prepared 3500 IU fruit juice, typical store fluorescent light, one week, no stabilizer

## C[C@@H]1O[C@@H](OC[C@H]2O[C@@H](Oc3c(-c4ccc(O)c(O)c4)oc4cc(O)cc(O)c4c3=O)[C@H](O)[C@@H](O)[C@@H]2O)[C@H](O)[C@H](O)[C@H]1O [Rutin, rutin]
[1]; 33 ppm stabilizer
  IU of Vitamin A Palmitate: 878 IU
[1]; 66 ppm stabilizer
  IU of Vitamin A Palmitate: 1215 IU
[2]
  IU of Vitamin A Palmitate: 856 IU
[3]
  IU of Vitamin A Palmitate: 1824 IU

## O=C(O)/C=C/c1ccc(O)c(O)c1 [caffeic acid]
[4]
  vitamin stabilization ability (rank order): caffeic acid (2 hydroxyl groups)>ferulic acid>coumaric acid>cinnamic acid

## O=C(O)C=Cc1ccccc1 [cinnamic acid]
[4]
  vitamin stabilization ability (rank order): caffeic acid (2 hydroxyl groups)>ferulic acid>coumaric acid>cinnamic acid

## O=C(O)/C=C/c1ccc(O)cc1 [coumaric acid]
[4]
  vitamin stabilization ability (rank order): caffeic acid (2 hydroxyl groups)>ferulic acid>coumaric acid>cinnamic acid

## COc1cc(/C=C/C(=O)O)ccc1O [ferulic acid]
[4]
  vitamin stabilization ability (rank order): caffeic acid (2 hydroxyl groups)>ferulic acid>coumaric acid>cinnamic acid

## Vitamin A
[5]
  remaining Vitamin A content: approximately 1000 IU
